# Test results published in patent US20230365592A1 (Agios Pharmaceuticals, Inc., priority 2022, published 2023).
# Target: T1, human PAH with the R408W mutation (Homo sapiens, UniProt P00439, R408W)
# T1 construct: expressed in transfected cells
# T1 sequence (P00439 1-452 R408W): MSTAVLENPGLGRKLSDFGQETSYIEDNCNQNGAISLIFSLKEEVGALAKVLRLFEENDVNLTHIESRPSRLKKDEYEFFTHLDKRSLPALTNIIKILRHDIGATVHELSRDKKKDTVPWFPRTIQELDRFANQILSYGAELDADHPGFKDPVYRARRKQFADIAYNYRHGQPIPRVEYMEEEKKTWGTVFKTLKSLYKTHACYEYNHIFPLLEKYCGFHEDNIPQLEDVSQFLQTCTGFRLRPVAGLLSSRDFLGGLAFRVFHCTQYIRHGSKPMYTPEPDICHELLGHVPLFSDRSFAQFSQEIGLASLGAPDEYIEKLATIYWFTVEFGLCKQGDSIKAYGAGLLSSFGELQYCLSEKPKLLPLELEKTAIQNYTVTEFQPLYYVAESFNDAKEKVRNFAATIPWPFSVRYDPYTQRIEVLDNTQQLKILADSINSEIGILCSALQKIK
# Experiment: Cell Based Phenylalanine Flux Assay;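 further: after compound treatment, cells received sepiapterin plus isotope-labelled Phenylalanine for 4 hours, then labelled Tyrosine in the medium was quantified, 10-point 2-fold dilution series run in duplicate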
# Settings: A375 cells expressing R408W PAH; 24 hrs with compound, then 20 µM sepiapterin and 800 µM 13C9,15N-Phenylalanine for 4 hours; 13C-Tyrosine by LC-MS; average where tested multiple times; read-out: AC50
row,AC50,SMILES
1,> 5000 nM,Cc1ccn2nc(C3c4nc[nH]c4CCN3C(=O)c3nnc(C)o3)cc2c1 (centres unmarked)
2,1000 to 5000 nM,Fc1cccn2nc(C3c4nc[nH]c4CCN3c3nnc(N4CCOCC4)o3)cc12 (centres unmarked)
3,> 5000 nM,CC(C)(O)c1nnc(C(=O)N2CCc3[nH]cnc3C2c2cc3cc(F)ccn3n2)o1 (centres unmarked)
4,1000 to 5000 nM,CN(C)Cc1ccc2c(C(=O)N3CCc4[nH]cnc4C3c3cc4cccc(Cl)n4n3)cnn2c1 (centres unmarked)
5,1000 to 5000 nM,O=C(c1nnc(C2CC2)o1)N1CCc2[nH]cnc2C1c1cc2cc(C(F)(F)F)ccn2n1 (centres unmarked)

# Same assay, conditions: A375 cells expressing human PAH R408W; 24 hrs compound incubation; 13C-Tyrosine by LC-MS; average where tested multiple times; read-out: AC50
row,AC50,SMILES
1,500 to 1000 nM,"O=C(c1nc2ccccc2o1)N1CCc2[nH]cnc2[C@H]1c1cc2c(C(F)(F)F)cccn2n1 [Example 2054, (S)-benzo[d]oxazol-2-yl(4-(4-(trifluoromethyl)pyrazolo[1,5-a]pyridin-2-yl)-1,4,6,7-tetrahydro-5H-imidazo[4,5-c]pyridin-5-yl)methanone]"
2,< 500 nM,"O=C(c1oc(-c2ccccn2)nc1C1CC1)N1CCc2[nH]cnc2[C@H]1c1cc2c(C(F)F)cccn2n1 [Example 2122, (S)-(4-cyclopropyl-2-(pyridin-2-yl)oxazol-5-yl)(4-(4-(difluoromethyl)pyrazolo[1,5-a]pyridin-2-yl)-1,4,6,7-tetrahydro-5H-imidazo[4,5-c]pyridin-5-yl)methanone]"
3,< 500 nM,"CCc1cccn2nc([C@@H]3c4nc[nH]c4CCN3C(=O)c3nnc(C4CC4)o3)cc12 [Example 1875, (S)-(5-cyclopropyl-1,3,4-oxadiazol-2-yl)(4-(4-ethylpyrazolo[1,5-a]pyridin-2-yl)-1,4,6,7-tetrahydro-5H-imidazo[4,5-c]pyridin-5-yl)methanone]"
4,< 500 nM,"Cn1cc(-c2nnc(C(=O)N3CCc4[nH]cnc4[C@H]3c3cc4c(Br)cccn4n3)o2)cn1 [Example 1868, (S)-(4-(4-bromopyrazolo[1,5-a]pyridin-2-yl)1,4,6,7-tetrahydro-5H-imidazo[4,5-c]pyridin-5-yl)(5-(1-methyl-1H-pyrazol-4-yl)-1,3,4-oxadiazol-2-yl)methanone]"
5,500 to 1000 nM,"Cc1cccn2nc([C@@H]3c4nc[nH]c4CCN3C(=O)[C@H]3CC3(F)F)cc12 [Example 2027, ((R)-2,2-difluorocyclopropyl)((S)-4-(4-methylpyrazolo[1,5-a]pyridin-2-yl)-1,4,6,7-tetrahydro-5H-imidazo[4,5-c]pyridin-5-yl)methanone]"
6,1000 to 5000 nM,"FC(F)c1cccc2cc([C@@H]3c4nc[nH]c4CCN3c3nnc(C(F)(F)F)o3)nn12 [Example 2487, (S)-2-(4-(7-(difluoromethyl)pyrazolo[1,5-a]pyridin-2-yl)-6,7-dihydro-1H-imidazo[4,5-c]pyridin-5(4H)-yl)-5-(trifluoromethyl)-1,3,4-oxadiazole]"
7,< 500 nM,"O=C(c1nnc(-c2ccn(C(F)F)n2)o1)N1CCc2[nH]cnc2[C@H]1c1cc2c(C3CC3)cccn2n1 [Example 1930, (S)-(4-(4-cyclopropylpyrazolo[1,5-a]pyridin-2-yl)-1,4,6,7-tetrahydro-5H-imidazo[4,5-c]pyridin-5-yl)(5-(1-(difluoromethyl)-1H-pyrazol-3-yl)-1,3,4-oxadiazol-2-yl)methanone]"

# Same assay, conditions: A375 cells expressing human R408W PAH; 24 hrs compound incubation; 13C-Tyrosine by LC-MS; average where tested multiple times; read-out: AC50
row,SMILES,AC50
1,"Cc1cccc2cc([C@@H]3c4nc[nH]c4CCN3C(=O)c3oc([C@H](C)O)nc3C(F)F)nn12 [Example 1152, (4-(difluoromethyl)-2-((S)-1-hydroxyethyl)oxazol-5-yl)((S)-4-(7-methylpyrazolo[1,5-a]pyridin-2-yl)-6,7-dihydro-1H-imidazo[4,5-c]pyridin-5(4H)-yl)methanone]",< 500 nM
2,"Cn1nccc1C(=O)N1CCc2[nH]cnc2[C@H]1c1cc2c(F)cccn2n1 [Example 884, (S)-(4-(4-fluoropyrazolo[1,5-a]pyridin-2-yl)-6,7-dihydro-1H-imidazo[4,5-c]pyridin-5(4H)-yl)(1-methyl-1H-pyrazol-5-yl)methanone]",500 to 1000 nM
3,"Cc1cc(C(=O)N2CCc3[nH]cnc3[C@H]2c2cc3c(C)cccn3n2)n(C)n1 [Example 900, (S)-(1,3-dimethyl-1H-pyrazol-5-yl)(4-(4-methylpyrazolo[1,5-a]pyridin-2-yl)-6,7-dihydro-1H-imidazo[4,5-c]pyridin-5(4H)-yl)methanone]",< 500 nM
4,"CC(C)(C)c1nnc(C(=O)N2CCc3[nH]cnc3[C@H]2c2cc3c(C(F)(F)F)cccn3n2)o1 [Example 948, (S)-(5-(tert-butyl)-1,3,4-oxadiazol-2-yl)(4-(4-(trifluoromethyl)pyrazolo[1,5-a]pyridin-2-yl)-6,7-dihydro-1H-imidazo[4,5-c]pyridin-5(4H)-yl)methanone]",< 500 nM
5,"CC(C)(O)c1nc(C(F)F)c(C(=O)N2CCc3[nH]cnc3[C@H]2c2cc3ccc(F)cn3n2)o1 [Example 1070, (S)-(4-(difluoromethyl)-2-(2-hydroxypropan-2-yl)oxazol-5-yl)(4-(6-fluoropyrazolo[1,5-a]pyridin-2-yl)-6,7-dihydro-1H-imidazo[4,5-c]pyridin-5(4H)-yl)methanone]",< 500 nM
6,"Cc1cccc2cc([C@@H]3c4nc[nH]c4CCN3C(=O)c3nnc(-c4cccnc4)o3)nn12 [Example 1308, (S)-(4-(7-methylpyrazolo[1,5-a]pyridin-2-yl)-6,7-dihydro-1H-imidazo[4,5-c]pyridin-5(4H)-yl)(5-(pyridin-3-yl)-1,3,4-oxadiazol-2-yl)methanone]",< 500 nM
7,"CC(C)(O)c1nc(C(F)F)c(C(=O)N2CCc3[nH]cnc3[C@H]2c2cc3cccc(Cl)n3n2)o1 [Example 960, (S)-(4-(7-chloropyrazolo[1,5-a]pyridin-2-yl)-6,7-dihydro-1H-imidazo[4,5-c]pyridin-5(4H)-yl)(4-(difluoromethyl)-2-(2-hydroxypropan-2-yl)oxazol-5-yl)methanone]",500 to 1000 nM
8,"O=C(c1nnc(-c2ncccc2F)o1)N1CCc2[nH]cnc2[C@H]1c1cc2cccc(C(F)(F)F)n2n1 [Example 1034, (S)-(5-(3-fluoropyridin-2-yl)-1,3,4-oxadiazol-2-yl)(4-(7-(trifluoromethyl)pyrazolo[1,5-a]pyridin-2-yl)-6,7-dihydro-1H-imidazo[4,5-c]pyridin-5(4H)-yl)methanone]",500 to 1000 nM
9,"Cc1nnc(C(=O)N2CCc3[nH]cnc3[C@H]2c2cc3c(C(F)F)cccn3n2)o1 [Example 1283, (S)-(4-(4-(difluoromethyl)pyrazolo[1,5-a]pyridin-2-yl)-6,7-dihydro-1H-imidazo[4,5-c]pyridin-5(4H)-yl)(5-methyl-1,3,4-oxadiazol-2-yl)methanone]",500 to 1000 nM
10,"O=C(CC1(O)CCC1)N1CCc2[nH]cnc2[C@@H]1c1cc2ccccn2n1 [Example 635, (R)-2-(1-hydroxycyclobutyl)-1-(4-(pyrazolo[1,5-a]pyridin-2-yl)-6,7-dihydro-1H-imidazo[4,5-c]pyridin-5(4H)-yl)ethanone]",1000 to 5000 nM
11,"Cc1cccc2cc([C@@H]3c4nc[nH]c4CCN3C(=O)c3ocnc3C(F)F)nn12 [Example 792, (S)-(4-(difluoromethyl)oxazol-5-yl)(4-(7-methylpyrazolo[1,5-a]pyridin-2-yl)-6,7-dihydro-1H-imidazo[4,5-c]pyridin-5(4H)-yl)methanone]",< 500 nM
12,"CC(C)(O)c1nc(C(F)F)c(C(=O)N2CCc3[nH]cnc3[C@@H]2c2cc3cc(F)ccn3n2)o1 [Example 1085, (R)-(4-(difluoromethyl)-2-(2-hydroxypropan-2-yl)oxazol-5-yl)(4-(5-fluoropyrazolo[1,5-a]pyridin-2-yl)-6,7-dihydro-1H-imidazo[4,5-c]pyridin-5(4H)-yl)methanone]",1000 to 5000 nM

# Next, values leading:
row,AC50,SMILES
1,1000 to 5000 nM,"Cc1cccc2cc([C@H]3c4nc[nH]c4CCN3C(=O)c3nnc(C4CCC4)o3)nn12 [Example 1563, (R)-(5-cyclobutyl-1,3,4-oxadiazol-2-yl)(4-(7-methylpyrazolo[1,5-a]pyridin-2-yl)-6,7-dihydro-1H-imidazo[4,5-c]pyridin-5(4H)-yl)methanone]"
2,500 to 1000 nM,"O=C(c1nnc(-c2cnccn2)o1)N1CCc2[nH]cnc2[C@H]1c1cc2c(OC(F)(F)F)cccn2n1 [Example 1680, (S)-(5-(pyrazin-2-yl)-1,3,4-oxadiazol-2-yl)(4-(4-(trifluoromethoxy)pyrazolo[1,5-a]pyridin-2-yl)-6,7-dihydro-1H-imidazo[4,5-c]pyridin-5(4H)-yl)methanone]"
3,> 5000 nM,"Clc1cccn2nc([C@H]3c4nc[nH]c4CCN3c3nnc(C4CC4)o3)cc12 [Example 1454, (R)-2-(4-(4-chloropyrazolo[1,5-a]pyridin-2-yl)-1,4,6,7-tetrahydro-5H-imidazo[4,5-c]pyridin-5-yl)-5-cyclopropyl-1,3,4-oxadiazole]"
4,500 to 1000 nM,"CC(C)(C)c1nnc(C(=O)N2CCc3[nH]cnc3[C@H]2c2cc3c(OC(F)(F)F)cccn3n2)o1 [Example 1759, (S)-(5-(tert-butyl)-1,3,4-oxadiazol-2-yl)(4-(4-(trifluoromethoxy)pyrazolo[1,5-a]pyridin-2-yl)-6,7-dihydro-1H-imidazo[4,5-c]pyridin-5(4H)-yl)methanone]"
5,500 to 1000 nM,"CC(C)(C)c1nnc(C(=O)N2CCc3[nH]cnc3[C@H]2c2cc3c(OC(F)F)cccn3n2)o1 [Example 1687, (S)-(5-(tert-butyl)-1,3,4-oxadiazol-2-yl)(4-(4-(difluoromethoxy)pyrazolo[1,5-a]pyridin-2-yl)-6,7-dihydro-1H-imidazo[4,5-c]pyridin-5(4H)-yl)methanone]"
